Consider 24 molecules from patent publication US9290467B2, “Cyclic amides” (Hoffmann-La Roche Inc., priority 2012, dated 2016).

pIC50: −log10 of the molar value.

The pIC50 is the IC50 on a negative log10 scale, so that one unit is a factor of ten. Low readings indicate a high IC50, high ones a low IC50.

Sequence of Cathepsin L (P07711 114-333): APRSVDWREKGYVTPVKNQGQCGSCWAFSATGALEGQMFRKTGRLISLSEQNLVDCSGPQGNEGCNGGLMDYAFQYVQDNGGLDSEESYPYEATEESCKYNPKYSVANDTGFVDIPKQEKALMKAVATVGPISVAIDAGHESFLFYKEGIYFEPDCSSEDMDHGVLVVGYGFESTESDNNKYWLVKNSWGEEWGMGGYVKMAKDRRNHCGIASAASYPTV

Tested on in one series: not given
Experiment: not given
Conditions: from C=CCCN1CCC[C@H]1C(=O)N[C@@H](Cc1ccc(OCC=C)c(Cl)c1)C(=O)OC; rcm bond; 16-membered ring; Grubbs II (0.3 eq)/pTsOH (2 eq, in AcOH); DCM; 2.64 mM; 50.0 °C.
The molecule `COC(=O)[C@@H]1Cc2ccc(c(Cl)c2)OC/C=C/CCN2CCCC2C(=O)N1` (stereo partly drawn) showed a ring closure, isolated yield of 87%.

Another series concerns the target Cathepsin L (Homo sapiens (Human), UniProt P07711). Put plainly: Cathepsin enzyme inhibition assay (fluorogenic peptide substrate Z-Val-Val-Arg-AMC). The series is classed as biochemical. The conditions noted are these: enzyme 1 nM, substrate 20 μM, pH 6.5. How it is done: Enzyme activity is measured by observing the increase in fluorescence intensity caused by cleavage of a peptide substrate containing a fluorophore whose emission is quenched in the intact peptide.
Assay buffer: 100 mM potassium phosphate pH 6.5, EDTA-Na 5 mM, Triton X-100 0.001%, DDT 5 mM.
Enzymes (all at 1 nM): human and mouse Cathepsin S, Cat K, Cat B, Cat L
Substrate (20 μM): Z-Val-Val-Arg-AMC, except for Cat K which uses Z-Leu-Arg-AMC (both from Bachem).
AMC=7-Amino-4-Methyl-Coumarin.
Excitation 360 nm, Emission 465 nm.
Enzyme is added to the substance dilutions in 96-well microtitre plates and the reaction is started with substrate. […] IC50 are calculated by standard methods. The results are expressed in μM in the following table.
As to `N#CC1(NC(=O)[C@@H]2Cc3ccc(c(I)c3)OC/C=C/COc3ccc(Cl)cc3C(=O)N2)CC1` [Example 28, (E)-(S)-8-Chloro-19-iodo-5-oxo-12,17-dioxa-4-aza-tricyclo[16.2.2.0*6,11*]docosa-1(21),6,8,10,14,18(22),19-heptaene-3-carboxylic acid (1-cyano-cyclopropyl)-amide], the pIC50 was 7.96. Still for that read-out and setting: in the case of `N#CC1(NC(=O)[C@@H]2Cc3ccc(c(Cl)c3)OCCCCOc3cc4c(cc3C(=O)N2)CCCC4)CC1` [Example 29, (12S)-22-chloro-N-(1-cyanocyclopropyl)-14-oxo-2,3,4,5,11,12,13,14,16,17,18,19-dodecahydro-7,10-ethenonaphtho[2,3-b][1,12,5]dioxazacyclohexadecine-12-carboxamide] it was 7.89; in that of `N#CC1(NC(=O)[C@@H]2Cc3ccc(c(I)c3)OCCCCOc3ccccc3C(=O)N2)CC1` [Example 30, (S)-19-Iodo-5-oxo-12,17-dioxa-4-aza-tricyclo[16.2.2.0*6,11*]docosa-1(21),6(11),7,9,18(22),19-hexaene-3-carboxylic acid (1-cyano-cyclopropyl)-amide], 6.74. Same read-out and setting: in the case of `N#CC1(NC(=O)[C@@H]2Cc3ccc(c(I)c3)OCCCCOc3ccc(Cl)cc3C(=O)N2)CC1` [Example 31, (S)-8-Chloro-19-iodo-5-oxo-12,17-dioxa-4-aza-tricyclo[16.2.2.0*6,11*]docosa-1(21),6(11),7,9,18(22),19-hexaene-3-carboxylic acid (1-cyano-cyclopropyl)-amide] it was 7.92; in that of `N#CC1(NC(=O)[C@@H]2Cc3ccc(c(Cl)c3)OC/C=C/COc3ccc(F)cc3C(=O)N2)CC1` [Example 32, (E)-(S)-19-Chloro-8-fluoro-5-oxo-12,17-dioxa-4-aza-tricyclo[16.2.2.0*6,11*]docosa-1(21),6,8,10,14,18(22),19-heptaene-3-carboxylic acid (1-cyano-cyclopropyl)-amide], 7.80; in that of `N#CC1(NC(=O)[C@@H]2Cc3ccc(c(Cl)c3)OC/C=C/COc3cc(Cl)ccc3C(=O)N2)CC1` [Example 33, (E)-(S)-9,19-Dichloro-5-oxo-12,17-dioxa-4-aza-tricyclo[16.2.2.0*6,11*]docosa-1(21),6,8,10,14,18(22),19-heptaene-3-carboxylic acid (1-cyano-cyclopropyl)-amide], 7.14. Same read-out and setting: in the case of `N#CC1(NC(=O)[C@@H]2Cc3ccc(c(Cl)c3)OC/C=C/COc3ccc(C(F)(F)F)cc3C(=O)N2)CC1` [Example 34, (E)-(S)-19-Chloro-5-oxo-8-trifluoromethyl-12,17-dioxa-4-aza-tricyclo[16.2.2.0*6,11*]docosa-1(21),6,8,10,14,18(22),19-heptaene-3-carboxylic acid (1-cyano-cyclopropyl)-amide] it was 8.05; in that of `N#CC1(NC(=O)[C@@H]2Cc3ccc(c(Cl)c3)OCCCCOc3ccc(F)cc3C(=O)N2)CC1` [Example 35, (S)-19-Chloro-8-fluoro-5-oxo-12,17-dioxa-4-aza-tricyclo[16.2.2.0*6,11*]docosa-1(21),6,8,10,18(22),19-hexaene-3-carboxylic acid (1-cyano-cyclopropyl)-amide], 7.64. The molecule `N#CC1(NC(=O)[C@@H]2Cc3ccc(c(Cl)c3)OCCCCOc3cc(Cl)ccc3C(=O)N2)CC1` [Example 36, (S)-9,19-Dichloro-5-oxo-12,17-dioxa-4-aza-tricyclo[16.2.2.0*6,11*]docosa-1(21),6,8,10,18(22),19-hexaene-3-carboxylic acid (1-cyano-cyclopropyl)-amide] gave a pIC50 of 7.30. On the same count and under the same terms, in the case of `N#CC1(NC(=O)[C@@H]2Cc3ccc(c(Cl)c3)OCCCCOc3ccc(C(F)(F)F)cc3C(=O)N2)CC1` [Example 37, (S)-19-Chloro-5-oxo-8-trifluoromethyl-12,17-dioxa-4-aza-tricyclo[16.2.2.0*6,11*]docosa-1(21),6,8,10,18(22),19-hexaene-3-carboxylic acid (1-cyano-cyclopropyl)-amide] it was 8.05; in that of `N#CC1(NC(=O)[C@@H]2Cc3ccc(c(Cl)c3)OC/C=C/CNc3ccc(Br)cc3C(=O)N2)CC1` [Example 38, (E)-(S)-8-Bromo-19-chloro-5-oxo-17-oxa-4,12-diaza-tricyclo[16.2.2.0*6,11*]docosa-1(21),6,8,10,14,18(22),19-heptaene-3-carboxylic acid (1-cyano-cyclopropyl)-amide], 8.00. Still for that read-out and setting: then `CC(C)(C)OC(=O)N1CC(c2ccc3c(c2)C(=O)N[C@H](C(=O)NC2(C#N)CC2)Cc2ccc(c(Cl)c2)OC/C=C/CO3)C1` [Example 39, 3-[(E)-(S)-19-Chloro-3-(1-cyano-cyclopropylcarbamoyl)-5-oxo-12,17-dioxa-4-aza-tricyclo[16.2.2.0*6,11*]docosa-1(21),6,8,10,14,18(22),19-heptaen-8-yl]-azetidine-1-carboxylic acid tert-butyl ester], with 7.58.

As to `N#CC1(NC(=O)[C@@H]2Cc3ccc(c(Cl)c3)OC/C=C/COc3ccc(C4CNC4)cc3C(=O)N2)CC1` [Example 41, (E)-(S)-8-Azetidin-3-yl-19-chloro-5-oxo-12,17-dioxa-4-aza-tricyclo[16.2.2.0*6,11*]docosa-1(21),6,8,10,14,18(22),19-heptaene-3-carboxylic acid (1-cyano-cyclopropyl)-amide], the pIC50 is 8.28. On the same count and under the same terms, in the case of `CC(C)(C)OC(=O)N1CC(c2ccc3c(c2)C(=O)N[C@H](C(=O)NC2(C#N)CC2)Cc2ccc(c(Cl)c2)OCCCCO3)C1` [Example 42, 3-[(S)-19-Chloro-3-(1-cyano-cyclopropylcarbamoyl)-5-oxo-12,17-dioxa-4-aza-tricyclo[16.2.2.0*6,11*]docosa-1(21),6,8,10,18(22),19-hexaen-8-yl]-azetidine-1-carboxylic acid tert-butyl ester] it was 7.59; in that of `N#CC1(NC(=O)[C@@H]2Cc3ccc(c(Cl)c3)OCCCCOc3ccc(C4CNC4)cc3C(=O)N2)CC1` [Example 43, (S)-8-Azetidin-3-yl-19-chloro-5-oxo-12,17-dioxa-4-aza-tricyclo[16.2.2.0*6,11*]docosa-1(21),6,8,10,18(22),19-hexaene-3-carboxylic acid (1-cyano-cyclopropyl)-amide], 8.51; in that of `N#CC1(NC(=O)[C@@H]2Cc3ccc(c(Cl)c3)OC/C=C/COc3c(F)cc(F)cc3C(=O)N2)CC1` [Example 44, (E-Z)—(S)-19-Chloro-8,10-difluoro-5-oxo-12,17-dioxa-4-aza-tricyclo[16.2.2.0*6,11*]docosa-1(21),6,8,10,14,18(22),19-heptaene-3-carboxylic acid (1-cyano-cyclopropyl)-amide], 8.04.

In turn, `N#CC1(NC(=O)[C@@H]2Cc3ccc(c(Cl)c3)OC/C=C/COc3ccc(F)c(F)c3C(=O)N2)CC1` [Example 45, (E)-(S)-19-Chloro-7,8-difluoro-5-oxo-12,17-dioxa-4-aza-tricyclo[16.2.2.0*6,11*]docosa-1(21),6,8,10,14,18(22),19-heptaene-3-carboxylic acid (1-cyano-cyclopropyl)-amide] had a pIC50 of 8.37. Same read-out and setting: then `N#CC1(NC(=O)[C@@H]2Cc3ccc(c(Cl)c3)OC/C=C\COc3ccc(F)c(F)c3C(=O)N2)CC1` [Example 46, (Z)—(S)-19-Chloro-7,8-difluoro-5-oxo-12,17-dioxa-4-aza-tricyclo[16.2.2.0*6,11*]docosa-1(21),6,8,10,14,18(22),19-heptaene-3-carboxylic acid (1-cyano-cyclopropyl)-amide], with 7.27; and `CSc1ccc2c(c1)C(=O)N[C@H](C(=O)NC1(C#N)CC1)Cc1ccc(c(Cl)c1)OC/C=C/CO2` [Example 47, (E)-(S)-19-Chloro-8-methylsulfanyl-5-oxo-12,17-dioxa-4-aza-tricyclo[16.2.2.0*6,11*]docosa-1(21),6,8,10,14,18(22),19-heptaene-3-carboxylic acid (1-cyano-cyclopropyl)-amide], with 8.80; and `N#CC1(NC(=O)[C@@H]2Cc3ccc(c(Cl)c3)OC/C=C/COc3c(Cl)cc(F)cc3C(=O)N2)CC1` [Example 48, (E)-(S)-10,19-Dichloro-8-fluoro-5-oxo-12,17-dioxa-4-aza-tricyclo[16.2.2.0*6,11*]docosa-1(21),6,8,10,14,18(22),19-heptaene-3-carboxylic acid (1-cyano-cyclopropyl)-amide], with 6.86. On the same count and under the same terms, in the case of `N#Cc1ccc2c(c1)C(=O)N[C@H](C(=O)NC1(C#N)CC1)Cc1ccc(c(Cl)c1)OCCCCO2` [Example 49, (S)-19-Chloro-8-cyano-5-oxo-12,17-dioxa-4-aza-tricyclo[16.2.2.0*6,11*]docosa-1(21),6,8,10,18(22),19-hexaene-3-carboxylic acid (1-cyano-cyclopropyl)-amide] it was 7.74; in that of `N#CC1(NC(=O)[C@@H]2Cc3ccc(c(Cl)c3)OCCCCOc3ccc(F)c(F)c3C(=O)N2)CC1` [Example 50, (S)-19-Chloro-7,8-difluoro-5-oxo-12,17-dioxa-4-aza-tricyclo[16.2.2.0*6,11*]docosa-1(21),6,8,10,18(22),19-hexaene-3-carboxylic acid (1-cyano-cyclopropyl)-amide], 7.87. Same read-out and setting: in the case of `CSc1ccc2c(c1)C(=O)N[C@H](C(=O)NC1(C#N)CC1)Cc1ccc(c(Cl)c1)OCCCCO2` [Example 51, (S)-19-Chloro-8-methylsulfanyl-5-oxo-12,17-dioxa-4-aza-tricyclo[16.2.2.0*6,11*]docosa-1(21),6,8,10,18(22),19-hexaene-3-carboxylic acid (1-cyano-cyclopropyl)-amide] it was 8.80.
